We go through 1 compound from patent US20260183295A1, “METHODS AND COMPOSITIONS FOR TREATING CANCER” (Onconova Therapeutics, Inc., priority 2022, published 2026).

The subject of one assay is PyMT cells. In words: Senescence-associated β-galactosidase staining, 48 hours. Type of assay: cell-based, mouse. As to conditions: compared to DMSO. On the procedure: Following 48 hours of treatment, cells were stained for the senescence marker β-galactosidase.
The next assay has as its system Caspase 3/7. In words: Caspase 3/7 Glo assay with or without bafilomycin A1, MDA-MB-231 cells, 2 days. Type of assay: cell-based. As to conditions: 5 μM. The source says: FIGS. 34 and 35 show Caspase 3/7 activity as measured by the Caspase 3/7 Glo assay. […] The effect was enhanced by co-treatment with bafilomycin A1 cotreatment.
The subject of a further assay is Caspase 3. In words: Western blot, MDA-MB-231 cells, 24 hours. As to conditions: 2.5, 5, 10 μM, versus Comparator 1, 2 and 4. It is filed as cell-based.
In assay [1] the target is T1, CDK4/cyclin D1 (Homo sapiens, UniProt P11802). In words: CDK4/cyclin D1 NanoBret IC50. Type of assay: cell-based.
T1 sequence (P11802 whole entry): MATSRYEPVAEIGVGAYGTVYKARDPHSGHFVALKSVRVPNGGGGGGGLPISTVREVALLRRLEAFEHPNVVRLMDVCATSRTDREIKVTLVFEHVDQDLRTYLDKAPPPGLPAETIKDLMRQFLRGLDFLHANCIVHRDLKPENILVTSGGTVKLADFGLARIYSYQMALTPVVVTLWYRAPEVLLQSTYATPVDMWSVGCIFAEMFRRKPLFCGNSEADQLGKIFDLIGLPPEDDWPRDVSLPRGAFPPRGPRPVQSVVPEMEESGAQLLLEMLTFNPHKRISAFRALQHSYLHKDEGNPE
T1 sequence (P24385 whole entry partner): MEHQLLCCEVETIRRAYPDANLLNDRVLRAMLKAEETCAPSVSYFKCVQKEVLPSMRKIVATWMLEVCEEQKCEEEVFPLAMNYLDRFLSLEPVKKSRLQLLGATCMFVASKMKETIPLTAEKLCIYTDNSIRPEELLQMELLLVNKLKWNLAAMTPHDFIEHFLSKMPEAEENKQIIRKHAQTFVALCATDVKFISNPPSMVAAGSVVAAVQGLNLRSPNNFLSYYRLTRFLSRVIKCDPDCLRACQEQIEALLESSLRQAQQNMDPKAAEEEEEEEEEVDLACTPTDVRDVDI
For another assay, the system named is MDA-MB-231. In words: MTT cell viability, 48 hours. Type of assay: cell-based. As to conditions: Homo sapiens, MDA-MB-231 (TNBC), read-out: 48 h-cell viability decrease. On the procedure: (§1) A panel of […] breast cancer cell lines: T-47D, BT-474, MDA-MB-453, MDA-MB-468, HCC-1937, Hs578T, and MDA-MB-231, was treated for 48 hours with 5 μM Compound 1 and the cell viability was measured using the MTT assay. TABLE 6 summarizes the cell lines, and the change in viability after 48 hours of treatment with Compound 1.

In a further assay the test system is T-47D. In words: MTT cell viability, 48 hours. Type of assay: cell-based. As to conditions: Homo sapiens, T47D, T-47D (HR+ HER2−), read-out: 48 h-cell viability decrease. On the procedure: as §1
The next assay deals with MDA-MB-453. In words: MTT cell viability, 48 hours. It is filed as cell-based. As to conditions: Homo sapiens, MDA-MB-453 (TNBC), read-out: 48 h-cell viability decrease. On the procedure: as §1
In a further assay the test system is HCC-1937. In words: MTT cell viability, 48 hours. As to conditions: Homo sapiens, HCC1937, 48 h, HCC-1937 (TNBC), read-out: 48 h-cell viability decrease. It is filed as cell-based. On the procedure: as §1
For a further assay, the system named is MDA-MB-468. In words: MTT cell viability, 48 hours. It is filed as cell-based. The conditions noted are these: Homo sapiens, MDA-MB-468 (TNBC), read-out: 48 h-cell viability decrease. On the procedure:
as §1

The next assay deals with Hs578T. In words: MTT cell viability, 48 hours. It is filed as cell-based. The conditions noted are these: Homo sapiens, Hs-578T, Hs578T (TNBC), read-out: 48 h-cell viability decrease. On the procedure: as §1
For another assay, the system named is BT-474. In words: MTT cell viability, 48 hours. Type of assay: cell-based. The conditions noted are these: Homo sapiens, BT-474 (HR+ HER2+), read-out: 48 h-cell viability decrease. On the procedure:
as §1

A further assay deals with T2, CHEK1 (Homo sapiens, UniProt O14757).
T2 construct: endogenous in cells; host or cells: MDA-MB-231
T2 sequence (O14757 1-476): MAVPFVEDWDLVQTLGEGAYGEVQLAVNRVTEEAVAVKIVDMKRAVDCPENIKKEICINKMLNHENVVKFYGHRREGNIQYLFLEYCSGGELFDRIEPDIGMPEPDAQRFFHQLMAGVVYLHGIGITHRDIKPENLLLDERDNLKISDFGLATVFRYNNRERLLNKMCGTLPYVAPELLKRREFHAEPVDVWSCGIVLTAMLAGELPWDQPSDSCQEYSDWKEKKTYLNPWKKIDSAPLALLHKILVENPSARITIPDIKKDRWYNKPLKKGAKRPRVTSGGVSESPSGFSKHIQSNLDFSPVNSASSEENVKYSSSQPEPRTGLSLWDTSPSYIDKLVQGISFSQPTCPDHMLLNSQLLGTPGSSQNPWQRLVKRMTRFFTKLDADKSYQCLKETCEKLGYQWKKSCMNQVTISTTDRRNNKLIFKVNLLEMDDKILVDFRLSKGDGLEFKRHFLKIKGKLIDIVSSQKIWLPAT
In words: CETSA-MS, MDA-MB-231 cell lysates and intact cells. Type of assay: cell-based. The conditions noted are these: present in both MDA-MB-231 cell lysates and intact cells. On the procedure:
(§2) Following treatment, cell lysates were thermally treated in a thermal gradient profile across a temperature range. Following the thermal shift, cell lysates were spun by centrifuge to pellet aggregate protein and the supernatant withdrawn. The supernatant was then denatured in buffer and heated to denature, reduce, and alkylate the supernatant proteins. Following heating and cooling to room temperature, cold acetone was added to the supernatant samples and proteins precipitated.
(§3) TNBC MDA-MB-231 cells were grown at 37° C. in 5% CO2 and suspended in warm media and split into 4 equal volumes. […] Cells were incubated and then pelleted. Following pelleting, the cells were washed, resuspended, and heated in a thermal gradient. Following heating, the samples were flash frozen and lysed in lysis buffer, agitated by vortex, and sonicated prior to centrifugation. The supernatant was collected and denaturation buffer added. Cold acetone was then added to the cell samples, and protein collected by centrifugation. Pellets were then washed twice with cold acetone and the washed pellets prior to labeling.
(§4) The intact cell protein samples and lysate protein samples were then digested and labeled for mass spectrometry analysis according to the manufacturer's recommended protocols. Digested and labeled protein samples were analyzed by mass spectrometry proteomic analysis and the resulting protein targets were analyzed and plotted.

The target of a further assay is T3, GSK3B (Homo sapiens, UniProt P49841).
T3 construct: endogenous in cells; host or cells: MDA-MB-231
T3 sequence (P49841 whole entry): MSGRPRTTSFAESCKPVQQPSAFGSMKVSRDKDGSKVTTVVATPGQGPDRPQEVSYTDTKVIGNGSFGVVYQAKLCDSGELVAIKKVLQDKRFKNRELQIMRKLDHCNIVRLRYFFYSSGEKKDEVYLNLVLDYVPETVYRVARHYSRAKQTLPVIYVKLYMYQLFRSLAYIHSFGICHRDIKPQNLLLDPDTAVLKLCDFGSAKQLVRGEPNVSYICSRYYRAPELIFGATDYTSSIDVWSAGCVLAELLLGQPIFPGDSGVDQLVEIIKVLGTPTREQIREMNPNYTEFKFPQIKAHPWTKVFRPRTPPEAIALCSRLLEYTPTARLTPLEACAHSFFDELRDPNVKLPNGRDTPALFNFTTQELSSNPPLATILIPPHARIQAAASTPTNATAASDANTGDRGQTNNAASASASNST
In words: CETSA-MS, MDA-MB-231 cell lysates and intact cells. It is filed as cell-based. As to conditions: present in both MDA-MB-231 cell lysates and intact cells. On the procedure:
as §2, §3, §4

A further assay has as its target T4, BMP2K (Homo sapiens, UniProt Q9NSY1).
T4 construct: endogenous in cells; host or cells: MDA-MB-231
In words: CETSA-MS, MDA-MB-231 cell lysates and intact cells. The conditions noted are these: present in both MDA-MB-231 cell lysates and intact cells. It is filed as cell-based. On the procedure: as §2, §3, §4

Another assay has as its target T5, GSK3A (Homo sapiens, UniProt P49840).
T5 construct: endogenous in cells; host or cells: MDA-MB-231
In words: CETSA-MS, MDA-MB-231 cell lysates and intact cells. It is filed as cell-based. As to conditions: present in both MDA-MB-231 cell lysates and intact cells. On the procedure: as §2, §3, §4

The next assay has as its target T6, AAK1 (Homo sapiens, UniProt Q2M2I8).
T6 construct: endogenous in cells; host or cells: MDA-MB-231
In words: CETSA-MS, MDA-MB-231 cell lysates and intact cells. As to conditions: present in both MDA-MB-231 cell lysates and intact cells. Type of assay: cell-based. On the procedure:
as §2, §3, §4

Assay [2] addresses T1, CDK4/cyclin D1. In words: CDK4/cyclin D1 In Vitro Kd, kinase binding assay (qPCR). On the procedure:
Kinase-tagged T7 phage strains were prepared in an E. coli host derived from the BL21 strain. E. coli were grown to log-phase and infected with T7 phage and incubated with shaking at 32° C. until lysis. […] The remaining kinases were produced in HEK-293 cells and subsequently tagged with DNA for qPCR detection. […] The liganded beads were blocked with excess biotin and washed with blocking buffer (SeaBlock (Pierce), 1% BSA, 0.05% Tween 20, 1 mM DTT) to remove unbound ligand and to reduce non-specific binding. […] Test compounds were prepared as 111× stocks in 100% DMSO. Kds were determined using an 11-point 3-fold compound dilution series with three DMSO control points. […] The compounds were then diluted directly into the assays such that the final concentration of DMSO was 0.9%. All reactions performed in polypropylene 384-well plate. Each was a final volume of 0.02 ml. […] The kinase concentration in the eluates was measured by qPCR. […] Curves were fitted using a non-linear least square fit with the Levenberg-Marquardt algorithm.

T6 sequence (Q2M2I8 whole entry): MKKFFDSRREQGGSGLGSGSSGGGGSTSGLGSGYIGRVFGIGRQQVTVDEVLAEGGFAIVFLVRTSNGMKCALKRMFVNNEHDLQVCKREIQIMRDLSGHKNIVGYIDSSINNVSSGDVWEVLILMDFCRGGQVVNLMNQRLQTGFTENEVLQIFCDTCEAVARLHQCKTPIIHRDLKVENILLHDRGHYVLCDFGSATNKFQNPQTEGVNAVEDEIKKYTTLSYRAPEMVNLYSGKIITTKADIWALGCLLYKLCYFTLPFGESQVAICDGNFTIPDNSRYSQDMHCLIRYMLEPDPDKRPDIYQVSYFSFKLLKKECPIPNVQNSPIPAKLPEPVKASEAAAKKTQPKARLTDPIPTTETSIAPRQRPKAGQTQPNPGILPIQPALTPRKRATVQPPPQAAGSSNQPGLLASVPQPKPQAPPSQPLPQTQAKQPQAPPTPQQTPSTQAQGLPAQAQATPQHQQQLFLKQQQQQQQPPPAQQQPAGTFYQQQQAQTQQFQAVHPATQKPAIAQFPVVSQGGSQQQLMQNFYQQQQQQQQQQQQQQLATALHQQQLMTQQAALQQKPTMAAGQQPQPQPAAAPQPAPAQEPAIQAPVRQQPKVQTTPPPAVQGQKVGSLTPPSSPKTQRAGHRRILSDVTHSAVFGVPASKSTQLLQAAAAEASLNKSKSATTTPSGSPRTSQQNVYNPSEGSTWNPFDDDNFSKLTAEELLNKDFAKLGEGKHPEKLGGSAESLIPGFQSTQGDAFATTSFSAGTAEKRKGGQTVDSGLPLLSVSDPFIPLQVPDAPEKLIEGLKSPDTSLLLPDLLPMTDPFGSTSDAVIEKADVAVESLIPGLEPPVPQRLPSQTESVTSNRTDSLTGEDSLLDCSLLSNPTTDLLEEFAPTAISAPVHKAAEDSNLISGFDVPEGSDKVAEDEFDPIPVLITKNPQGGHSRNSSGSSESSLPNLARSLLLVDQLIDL
T4 sequence (Q9NSY1 whole entry): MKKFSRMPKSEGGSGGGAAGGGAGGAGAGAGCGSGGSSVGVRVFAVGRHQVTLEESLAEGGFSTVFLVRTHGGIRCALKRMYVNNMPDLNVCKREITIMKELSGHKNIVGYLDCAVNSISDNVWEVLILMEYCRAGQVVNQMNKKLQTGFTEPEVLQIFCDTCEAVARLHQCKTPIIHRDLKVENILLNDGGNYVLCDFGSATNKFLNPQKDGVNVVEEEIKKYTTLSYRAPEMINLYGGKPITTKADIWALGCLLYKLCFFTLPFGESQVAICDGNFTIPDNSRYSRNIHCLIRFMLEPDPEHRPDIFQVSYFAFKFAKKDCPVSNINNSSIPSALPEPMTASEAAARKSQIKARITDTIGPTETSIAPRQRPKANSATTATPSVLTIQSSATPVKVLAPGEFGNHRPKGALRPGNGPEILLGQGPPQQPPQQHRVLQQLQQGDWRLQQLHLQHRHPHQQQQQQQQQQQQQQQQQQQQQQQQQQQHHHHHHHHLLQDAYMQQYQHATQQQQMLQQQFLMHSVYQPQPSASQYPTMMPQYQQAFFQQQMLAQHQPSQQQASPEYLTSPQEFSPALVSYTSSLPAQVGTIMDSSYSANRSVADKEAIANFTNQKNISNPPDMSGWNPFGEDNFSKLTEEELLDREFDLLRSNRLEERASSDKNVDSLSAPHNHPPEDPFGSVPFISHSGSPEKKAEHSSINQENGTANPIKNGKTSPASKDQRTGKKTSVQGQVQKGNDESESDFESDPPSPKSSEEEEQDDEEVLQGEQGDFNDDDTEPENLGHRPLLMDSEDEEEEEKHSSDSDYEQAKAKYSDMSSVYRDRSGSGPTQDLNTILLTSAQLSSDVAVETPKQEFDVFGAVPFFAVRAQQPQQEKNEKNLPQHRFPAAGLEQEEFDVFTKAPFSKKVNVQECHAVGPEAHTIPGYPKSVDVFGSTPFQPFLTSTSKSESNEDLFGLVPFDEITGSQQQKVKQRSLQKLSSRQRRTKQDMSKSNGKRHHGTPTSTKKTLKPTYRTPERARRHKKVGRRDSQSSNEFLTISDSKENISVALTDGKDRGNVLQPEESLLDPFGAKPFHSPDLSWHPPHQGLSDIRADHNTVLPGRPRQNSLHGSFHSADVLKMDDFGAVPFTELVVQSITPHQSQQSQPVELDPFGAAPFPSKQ
T5 sequence (P49840 whole entry): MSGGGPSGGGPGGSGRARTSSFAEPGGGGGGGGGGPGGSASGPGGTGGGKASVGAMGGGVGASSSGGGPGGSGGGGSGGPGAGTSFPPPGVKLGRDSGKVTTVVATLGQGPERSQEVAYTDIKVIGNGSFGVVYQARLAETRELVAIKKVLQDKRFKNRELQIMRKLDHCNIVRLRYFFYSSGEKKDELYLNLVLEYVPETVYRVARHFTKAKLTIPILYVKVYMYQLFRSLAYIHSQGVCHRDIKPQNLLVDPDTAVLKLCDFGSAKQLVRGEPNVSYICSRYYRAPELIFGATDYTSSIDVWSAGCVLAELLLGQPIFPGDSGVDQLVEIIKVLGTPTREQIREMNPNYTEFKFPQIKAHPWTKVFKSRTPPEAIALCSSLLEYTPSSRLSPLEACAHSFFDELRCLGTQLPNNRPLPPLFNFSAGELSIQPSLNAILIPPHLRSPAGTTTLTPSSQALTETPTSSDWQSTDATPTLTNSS

Turning to `CN1CCN(c2ccc(Nc3ncc4cc(C#N)c(=O)n(C5CCCC5)c4n3)cc2)CC1` [Compound 1, 8-cyclopentyl-2-((4-(4-methylpiperazin-1-yl)phenyl)amino)-7-oxo-7,8-dihydropyrido[2,3-d]pyrimidine-6-carbonitrile], the “β-galactosidase staining (senescence)” value in the assay on PyMT cells is given as “increased β-galactosidase staining”. Moreover, the “Caspase 3/7 activity, compound alone” value with Caspase 3/7 is “increased Caspase 3/7 activity”. The “effect of bafilomycin A1 cotreatment on Caspase 3/7 activity” value in the assay with Caspase 3/7 is “enhanced”. The “Caspase 3 levels” value with Caspase 3 is given as “decreasing”. Also, half-maximal inhibition against CDK4/cyclin D1 [1] (IC50) required 1 nM. Also, the cytotoxicity at 5 µM in the assay with MDA-MB-231 worked out at 60%; with T-47D it was 60%; with MDA-MB-453 it was 50%; in the assay on HCC-1937, 20%; with MDA-MB-468, 65%; in the assay with Hs578T it was 40%. For the same compound, in the assay on BT-474, the cytotoxicity at 5 µM is 50%. The “Group (CETSA-MS thermal shift)” value is on record as “Destabilization” on CHEK1; “Stabilization” at GSK3B; “Stabilization” at BMP2K; “Stabilization” at GSK3A; “Stabilization” at AAK1. The same compound had a Kd at CDK4/cyclin D1 [2] of 0.18 nM.
